Measured values taken from paper PMC222928 (BMC Biochemistry, 2003).

Tests used:
aaTHEP1 [1] = target: T1, aaTHEP1 (Aquifex aeolicus, UniProt O67322); test: inhibition of [γ-32P]ATP hydrolysis, TLC on PEI-cellulose; type: biochemical
T1 sequence (O67322 1-178): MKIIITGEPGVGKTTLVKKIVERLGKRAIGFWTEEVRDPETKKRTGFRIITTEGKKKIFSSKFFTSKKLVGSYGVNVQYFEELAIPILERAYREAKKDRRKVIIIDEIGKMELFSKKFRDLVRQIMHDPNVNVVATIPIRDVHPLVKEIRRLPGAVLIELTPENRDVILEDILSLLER

aaTHEP1 [2] = target: T1, aaTHEP1; test: inhibition of [γ-32P]ATP hydrolysis, TLC autoradiography; type: biochemical; conditions: 5 and 1000 μM ATP, 5 and 1000 μM GDP, 70°C, 5 min
purified protein = substrate: Nc1ncnc2c1ncn2[C@@H]1O[C@H](COP(=O)(O)OP(=O)(O)OP(=O)(O)O)[C@@H](O)[C@H]1O; test: purified protein; conditions: 70°C, 25 mM MgCl2, 5 mM KCl, pH 7.0, labelled compound

Molecule | Ki (aaTHEP1 [1]) [µM] | further results
Nc1ccn([C@@H]2O[C@H](COP(=O)(O)OP(=O)(O)OP(=O)(O)O)[C@@H](O)[C@H]2O)c(=O)n1 [CTP] | 6 ± 2 | –
Nc1nc2c(ncn2[C@@H]2O[C@H](COP(=O)(O)OP(=O)(O)O)[C@@H](O)[C@H]2O)c(=O)[nH]1 [GDP] | – | inhibition of [γ-32P]ATP hydrolysis, TLC autoradiography (aaTHEP1 [2]): GDP also inhibits ATP-hydrolysis, whereas GMP, AMP, and UMP show no inhibition
Nc1nc2c(ncn2[C@@H]2O[C@H](COP(=O)(O)OP(=O)(O)OP(=O)(O)O)[C@@H](O)[C@H]2O)c(=O)[nH]1 [GTP] | 57 ± 20 | –
O=c1ccn([C@@H]2O[C@H](COP(=O)(O)OP(=O)(O)OP(=O)(O)O)[C@@H](O)[C@H]2O)c(=O)[nH]1 [UTP] | 5 ± 2 | –
Nc1ncnc2c1ncn2[C@H]1C[C@H](O)[C@@H](COP(=O)(O)OP(=O)(O)OP(=O)(O)O)O1 [dATP] | 3 ± 0.2 | –
Nc1ccn([C@H]2C[C@H](O)[C@@H](COP(=O)(O)OP(=O)(O)OP(=O)(O)O)O2)c(=O)n1 [dCTP] | 9 ± 3 | –
Nc1nc2c(ncn2[C@H]2C[C@H](O)[C@@H](COP(=O)(O)OP(=O)(O)OP(=O)(O)O)O2)c(=O)[nH]1 [dGTP] | 18 ± 2 | –
Cc1cn([C@H]2C[C@H](O)[C@@H](COP(=O)(O)OP(=O)(O)OP(=O)(O)O)O2)c(=O)[nH]c1=O [dTTP] | 6 ± 2 | –
aaTHEP1 (Aquifex aeolicus VF5) (protein) MKIIITGEPGVGKTTLVKKIVERLGKRAIGFWTEEVRDPETKKRTGFRIITTEGKKKIFSSKFFTSKKLVGSYGVNVQYFEELAIPILERAYREAKKDRRKVIIIDEIGKMELFSKKFRDLVRQIMHDPNVNVVATIPIRDVHPLVKEIRRLPGAVLIELTPENRDVILEDILSLLER | – | Km (purified protein): 5.5 µM; kcat (purified protein): 0.005 s⁻¹
